Results reported in patent US20240368174A1, “Antiviral Heterocyclic Compounds” (Enanta Pharmaceuticals, Inc., priority 2023, published 2024).

These molecules were tested on genotype A, “Long” strain RSV (assay: RSV-A assay (CPE, ATPlite readout in Hep-2 cells)). Details: human respiratory syncytial virus, activity class.
Assay type: cell-based, Human respiratory syncytial virus
Method in brief: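 Protection from RSV-induced cytopathic effect measured by ATP content (ATPlite) after 5-day culture. Infection used genotype A Long virus at MOI 0.1 on 8,000 Hep-2 cells per well, with compound serially diluted 2-fold; values are EC50.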

Compound	EC50
COc1cc(C(=O)NC[C@](O)(c2cc3c(c(-c4cc(C(F)(F)F)ncc4F)n2)OC[C@]3(C)C(N)=O)C2CC2)cc2cn(C3(F)CC3)nc12 [Example 348]	< 200 nM
C[C@]1(C(N)=O)COc2c1cc([C@@](O)(CNC(=O)c1cc(OC3CC3)c3ncc(Cl)cc3c1)C1CC1)nc2-c1ccc2c(c1)OC(F)(F)O2 [Example 108]	< 200 nM
COc1cc(C(=O)NC[C@](O)(c2cc3c(c(-n4ccc5c(F)cccc54)n2)OC[C@]3(C)C(N)=O)C2(F)CC2)cc2cn(C(F)F)nc12 [Example 688]	< 200 nM
COc1cc(C(=O)NC[C@@](O)(c2ccccc2)c2cc3c(c(-n4ncc5c(F)cccc54)n2)OC[C@]3(C)C(N)=O)cc2cn(C3(F)CC3)nc12 [Example 629]	< 200 nM
COc1cc(C(=O)NC[C@@](O)(c2ccccc2)c2cc3c(c(-c4ccnc(F)c4Cl)n2)OC[C@]3(C)C(N)=O)cc2oc(C3CC3)nc12 [Example 345]	< 200 nM
COc1cc(C(=O)NC[C@@](O)(c2ccccc2)c2cc3c(c(-n4ncc5c(F)cccc54)n2)OC[C@]3(C)C(N)=O)cc2cn(C3CC3)nc12 [Example 628]	< 200 nM
COc1cc(C(=O)NC[C@](O)(c2cc3c(c(-c4ccc(F)c(Cl)c4Cl)n2)OC[C@]3(C)C(N)=O)C2CC2)cc2cc(C3CC3)nn12 [Example 324]	< 200 nM
COc1cc(C(=O)NC[C@](O)(c2cc3c(c(-c4ccnc(C(F)(F)F)c4Cl)n2)OC[C@]3(C)C(N)=O)C2CC2)cc2cc(C3CC3)nn12 [Example 579]	< 200 nM
COc1cc(C(=O)NC[C@@](O)(C#CC(C)(C)S(C)(=O)=O)c2cc3c(c(-c4cc(Cl)c(F)cc4F)n2)OC[C@]3(C)C(N)=O)cc2cn(C3CC3)nc12 [Example 341]	< 200 nM
COc1cc(C(=O)NC[C@@](O)(C#CC(C)(C)O)c2cc3c(c(-c4cc(Cl)c(F)cc4F)n2)OC[C@]3(C)C(N)=O)cc2cn(C3CC3)nc12 [Example 477]	< 200 nM
COc1cc(C(=O)NC[C@](O)(c2cc3c(c(-c4cc(C(F)(F)F)c(F)cc4F)n2)OC[C@]3(C)C(N)=O)C2CC2)cc2cn(C(F)F)nc12 [Example 310]	< 200 nM
COc1cc(C(=O)NCC(O)(CC2CC2)c2cc3c(c(-c4cc(Cl)c(F)cc4F)n2)OC[C@]3(C)C(N)=O)cc2cn(C3CC3)nc12 (stereo partly shown) [Example 239]	< 200 nM
COc1cc(C(=O)NC[C@@](O)(c2cccc(F)c2)c2cc3c(c(-c4cc(C(F)(F)F)ncc4F)n2)OC[C@]3(C)C(N)=O)cc2cn(C3CC3)nc12 [Example 408]	< 200 nM
COc1cc(C(=O)NC[C@](O)(c2cc3c(c(-c4ccnc(C(F)(F)F)c4Cl)n2)OC[C@]3(C)C(N)=O)C2CC2)cc2cn(C3(F)CC3)nc12 [Example 760]	< 200 nM
COc1cc(C(=O)NC[C@](O)(c2cc3c(c(-c4ccnc(C(F)F)c4Cl)n2)OC[C@]3(C)C(N)=O)C2CC2)cc2cn(C3(F)CC3)nc12 [Example 786]	< 200 nM
COc1nccc(-c2nc([C@@](O)(CNC(=O)c3cc(OC)c4nn(C5CC5)cc4c3)C(F)(F)F)cc3c2OC[C@]3(C)C(N)=O)c1Cl [Example 796]	< 200 nM
COC1=CC(C(=O)NC[C@](O)(c2cc3c(c(-c4ccnc(C)c4Cl)n2)OC[C@]3(C)C(N)=O)C2(F)CC2)=CC2OC(C3CC3)=NC12 (stereo partly shown) [Example 526]	< 200 nM
COc1cc(C(=O)NC[C@](O)(c2cc3c(c(-c4cc(F)c(F)cc4F)n2)OC[C@]3(C)C(N)=O)C2CC2)cn2cc(C3CC3)nc12 [Example 116]	< 200 nM
COc1cc(C(=O)NC[C@](O)(c2cc3c(c(-c4cc(F)c(F)cc4F)n2)OC[C@]3(C)C(N)=O)C2CC(F)(F)C2)cc2oc(C3CC3)nc12 [Example 124]	< 200 nM
COc1cc(C(=O)NC[C@](O)(c2cc3c(c(-c4ccc5c(c4)OC(F)(F)O5)n2)OC[C@]3(C)C(N)=O)C2CC2)cc2cc(Cl)cnc12 [Example 107]	< 200 nM
COc1nccc(-c2nc([C@@](O)(CNC(=O)c3cc(OC)c4nc(C5CC5)oc4c3)C3CC3)cc3c2OC[C@]3(C)C(N)=O)c1Cl [Example 745]	< 200 nM
COc1cc(C(=O)NC[C@](O)(c2cc3c(c(-c4ccnc(C(F)F)c4Cl)n2)OC[C@]3(C)C(N)=O)C2CC2)cc2cn(C(F)F)nc12 [Example 785]	< 200 nM
COc1cc(C(=O)NC[C@](O)(c2cc3c(c(-c4cc(C(F)(F)F)c(F)cc4F)n2)OC[C@]3(C)C(N)=O)C2CC2)cc2cn(C3(F)CC3)nc12 [Example 309]	< 200 nM

The molecules below were run on HMPV clinical isolate A2 strain TN 94-49 (assay: HMPV antiviral assay, Method 2 (LLC-MK2 cells with CP-100-356, ATP-Lite)). Details: human metapneumovirus, 168 h; hMPV A2 TN/94-49, LLC-MK2 cells with 4 μM CP-100-356, 7 days, ATP-Lite.
Assay type: cell-based
Method in brief: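 EC50 comes from a four-parameter fit of percent cell viability (ATP-Lite, normalized to virus-only and cell-only wells) after 7 days at 37 °C. Infection used HMPV A2 TN 94-49 at MOI 0.16 in LLC-MK2 cells, with 2 μM P-gp inhibitor CP-100-356 and 2 μg/mL TPCK-trypsin final; dose range 200 nM top, 2.5-fold, 10 points, duplicate.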

Compound	EC50
COc1cc(C(=O)NC[C@](O)(c2cc3c(c(-n4ccc5c(F)cccc54)n2)OC[C@]3(C)C(N)=O)C2(F)CC2)cc2cn(C(F)F)nc12 [Example 688]	< 200 nM
COc1cc(C(=O)NC[C@@](O)(c2ccccc2)c2cc3c(c(-n4ncc5c(F)cccc54)n2)OC[C@]3(C)C(N)=O)cc2cn(C3(F)CC3)nc12 [Example 629]	< 200 nM
COc1cc(C(=O)NC[C@@](O)(c2ccccc2)c2cc3c(c(-n4ncc5c(F)cccc54)n2)OC[C@]3(C)C(N)=O)cc2cn(C3CC3)nc12 [Example 628]	< 200 nM
COc1cc(C(=O)NC[C@](O)(c2cc3c(c(-c4ccnc(C(F)(F)F)c4Cl)n2)OC[C@]3(C)C(N)=O)C2CC2)cc2cn(C3(F)CC3)nc12 [Example 760]	< 200 nM
COc1cc(C(=O)NC[C@](O)(c2cc3c(c(-c4ccnc(C(F)F)c4Cl)n2)OC[C@]3(C)C(N)=O)C2CC2)cc2cn(C3(F)CC3)nc12 [Example 786]	< 200 nM
COc1nccc(-c2nc([C@@](O)(CNC(=O)c3cc(OC)c4nn(C5CC5)cc4c3)C(F)(F)F)cc3c2OC[C@]3(C)C(N)=O)c1Cl [Example 796]	< 200 nM
COc1nccc(-c2nc([C@@](O)(CNC(=O)c3cc(OC)c4nc(C5CC5)oc4c3)C3CC3)cc3c2OC[C@]3(C)C(N)=O)c1Cl [Example 745]	< 200 nM
COc1cc(C(=O)NC[C@](O)(c2cc3c(c(-c4ccnc(C(F)F)c4Cl)n2)OC[C@]3(C)C(N)=O)C2CC2)cc2cn(C(F)F)nc12 [Example 785]	< 200 nM

Same assay, conditions: human metapneumovirus; hMPV A2 TN/94-49, LLC-MK2 cells with CP-100-356, Method 2

Compound	EC50
COc1cc(C(=O)NC[C@](O)(c2cc3c(c(-c4cc(C(F)(F)F)ncc4F)n2)OC[C@]3(C)C(N)=O)C2CC2)cc2cn(C3(F)CC3)nc12 [Example 348]	< 200 nM
C[C@]1(C(N)=O)COc2c1cc([C@@](O)(CNC(=O)c1cc(OC3CC3)c3ncc(Cl)cc3c1)C1CC1)nc2-c1ccc2c(c1)OC(F)(F)O2 [Example 108]	< 200 nM
COc1cc(C(=O)NC[C@@](O)(c2ccccc2)c2cc3c(c(-c4ccnc(F)c4Cl)n2)OC[C@]3(C)C(N)=O)cc2oc(C3CC3)nc12 [Example 345]	< 200 nM
COc1cc(C(=O)NC[C@](O)(c2cc3c(c(-c4ccc(F)c(Cl)c4Cl)n2)OC[C@]3(C)C(N)=O)C2CC2)cc2cc(C3CC3)nn12 [Example 324]	< 200 nM
COc1cc(C(=O)NC[C@](O)(c2cc3c(c(-c4ccnc(C(F)(F)F)c4Cl)n2)OC[C@]3(C)C(N)=O)C2CC2)cc2cc(C3CC3)nn12 [Example 579]	< 200 nM
COc1cc(C(=O)NC[C@@](O)(C#CC(C)(C)S(C)(=O)=O)c2cc3c(c(-c4cc(Cl)c(F)cc4F)n2)OC[C@]3(C)C(N)=O)cc2cn(C3CC3)nc12 [Example 341]	> 200 nM
COc1cc(C(=O)NC[C@@](O)(C#CC(C)(C)O)c2cc3c(c(-c4cc(Cl)c(F)cc4F)n2)OC[C@]3(C)C(N)=O)cc2cn(C3CC3)nc12 [Example 477]	> 200 nM
COc1cc(C(=O)NC[C@](O)(c2cc3c(c(-c4cc(C(F)(F)F)c(F)cc4F)n2)OC[C@]3(C)C(N)=O)C2CC2)cc2cn(C(F)F)nc12 [Example 310]	< 200 nM
COc1cc(C(=O)NCC(O)(CC2CC2)c2cc3c(c(-c4cc(Cl)c(F)cc4F)n2)OC[C@]3(C)C(N)=O)cc2cn(C3CC3)nc12 (stereo partly shown) [Example 239]	> 200 nM
COc1cc(C(=O)NC[C@@](O)(c2cccc(F)c2)c2cc3c(c(-c4cc(C(F)(F)F)ncc4F)n2)OC[C@]3(C)C(N)=O)cc2cn(C3CC3)nc12 [Example 408]	< 200 nM
COC1=CC(C(=O)NC[C@](O)(c2cc3c(c(-c4ccnc(C)c4Cl)n2)OC[C@]3(C)C(N)=O)C2(F)CC2)=CC2OC(C3CC3)=NC12 (stereo partly shown) [Example 526]	< 200 nM
COc1cc(C(=O)NC[C@](O)(c2cc3c(c(-c4cc(F)c(F)cc4F)n2)OC[C@]3(C)C(N)=O)C2CC2)cn2cc(C3CC3)nc12 [Example 116]	< 200 nM
COc1cc(C(=O)NC[C@](O)(c2cc3c(c(-c4cc(F)c(F)cc4F)n2)OC[C@]3(C)C(N)=O)C2CC(F)(F)C2)cc2oc(C3CC3)nc12 [Example 124]	< 200 nM
COc1cc(C(=O)NC[C@](O)(c2cc3c(c(-c4ccc5c(c4)OC(F)(F)O5)n2)OC[C@]3(C)C(N)=O)C2CC2)cc2cc(Cl)cnc12 [Example 107]	< 200 nM
COc1cc(C(=O)NC[C@](O)(c2cc3c(c(-c4cc(C(F)(F)F)c(F)cc4F)n2)OC[C@]3(C)C(N)=O)C2CC2)cc2cn(C3(F)CC3)nc12 [Example 309]	< 200 nM
